Reference: patent US10266482B2, “Long-term memory inducing agent” (NATIONAL UNIVERSITY CORPORATION TOKYO MEDICAL AND DENTAL …, priority 2017, dated 2019)

What was measured:
[1] = test system: young crickets; test: Olfactory associative learning test in young crickets (single-time training, memory a day after); format: in vivo, Gryllus bimaculatus; conditions: drinking 10 μl of aqueous solution (5 μM) 5 minutes after single-time training
[2] = test system: aged crickets; test: Olfactory associative learning test in aged crickets (age-related memory disorder, training four times); format: in vivo, Gryllus bimaculatus; conditions: 5 μM, 3 μl
Protocol: Male crickets about one week old (young) or three week old (aged) following molting into adult forms were used. Each of the crickets was placed into a 100 ml beaker three days before the experiment, and deprived of water for 2-3 days to enhance the desire of taking water. As the feed, about 10 pieces of insect feed were placed into the beaker. A 1-ml syringe was used for smell and reward associative conditioning upon learning/training. The syringe contained water as the reward while a piece of paper (3 mm×3 mm) perfumed with peppermint essence was pierced into the needle to about 1 cm from the tip thereof. In this learning/training, the filter paper on the needle was brought near the antennae of the cricket to allow it to smell for 3 seconds and then a drop of water was put out from the tip of the needle and applied to the mouth of the cricket. When the associative conditioning was conducted for four times, the conditionings were conducted at intervals of 5 minutes. Smell preference was examined by placing each cricket into a test arena. The arena consisted of a “standby chamber” and a “test chamber”. […] The smell source was a plastic pot containing filter paper perfumed with essence of a smell (peppermint or vanilla) and covered with a gauze lid. In the preference test, each cricket was placed into the test chamber and allowed to walk freely for 4 minutes to search for the two smell sources. Two minutes after the start of the test, a rotary board having the smell sources was rotated to reverse the positions of the vanilla and the peppermint smells. During the test, the time the cricket spent placing its mouth to the gauze of the smell source was measured as a visiting time to the smell source, and the ratio of the visiting times of the two types of smells (PI value: preference index) was calculated according to the following formula to assess the relative preference to the mint smell. PI value=Tp/(Tp+Tv)×100 • Tp: Searching time for smell associated with the reward (peppermint) • Tv: Searching time for smell not associated with the reward (vanilla) If the preferences for the two smells are equivalent, PI will be 50. Since crickets inherently prefer vanilla smell over peppermint smell, an average PI value prior to the learning/training is usually 25-35, The preference test was conducted before and after the learning/training to examine whether preference for the smell changes due to the learning/training. […] Melatonin, 6-HM, kynurenine, kynuramine and 8br-cGMP were purchased from SIGMA Aldrich, AFMK was purchased from Cayman Chemical, AMK was purchased from Toronto Research Chemicals and CHX was purchased from Wako Pure Chemical Industries. The drugs other than 8br-cGMP and CHX were first dissolved in ethanol and then diluted with physiological saline for crickets to the respective concentrations. In the administration experiment, 3 μl was administered using a 10-μl syringe to the brain via an aperture opened through a simple eye of the head. PI values were tested before the training and a day after the training in the same group by a Wilcoxon's-test.

[3] = test system: young mice; test: Object recognition test for young mice (melatonin and melatonin metabolites); format: in vivo, ICR mice; conditions: i.p. 60 minutes after one one-minute acquisition trial, test trial 24 hours later
Protocol: Two-month-old male ICR mice (young mice) were used. The rearing room was kept at 22° C. at cycles of 12 hours of light period/12 hours of dark period, and feed and drinking water were given freely. All of the experiments were conducted during the latter 6 hours of the light period.
Melatonin (MEL), N(1)-acetyl-N(2)-formyl-5-methoxykynuramine (AFMK), and N(1)-acetyl-5-methoxykynuramine (AMK) were used as drugs. Melatonin was purchased from SIGMA Aldrich, AFMK was purchased from Cayman Chemical, and AMK was purchased from Toronto Research Chemicals. AFMK and AMK were diluted with physiological saline and intraperitoneally administered at a dosage of 0.01 mg/kg bw, 0.1 mg/kg bw or 1.0 mg/kg bw. MEL was diluted with physiological saline containing 1 vol % ethanol, and intraperitoneally administered at a dosage of 1.0 mg/kg bw or 5.0 mg/kg bw. As controls, physiological saline or physiological saline containing 1 vol % ethanol was intraperitoneally administered.
Test was conducted in the same manner as “5.3 Object recognition test” in Example 5.
Processing was conducted in the same manner as “5.4 Statistical processing” in Example 5.

[4] = test system: young crickets; test: Olfactory associative learning test in young crickets (single-time training, memory a day after); format: in vivo, Gryllus bimaculatus
Protocol: Male crickets about one week old (young) or three week old (aged) following molting into adult forms were used. Each of the crickets was placed into a 100 ml beaker three days before the experiment, and deprived of water for 2-3 days to enhance the desire of taking water. As the feed, about 10 pieces of insect feed were placed into the beaker.
A 1-ml syringe was used for smell and reward associative conditioning upon learning/training. The syringe contained water as the reward while a piece of paper (3 mm×3 mm) perfumed with peppermint essence was pierced into the needle to about 1 cm from the tip thereof. In this learning/training, the filter paper on the needle was brought near the antennae of the cricket to allow it to smell for 3 seconds and then a drop of water was put out from the tip of the needle and applied to the mouth of the cricket. When the associative conditioning was conducted for four times, the conditionings were conducted at intervals of 5 minutes.
Smell preference was examined by placing each cricket into a test arena. The arena consisted of a “standby chamber” and a “test chamber”. The floor of the “test chamber” had two holes each with a diameter of 4 cm which were communicated with two smell sources. The smell source was a plastic pot containing filter paper perfumed with essence of a smell (peppermint or vanilla) and covered with a gauze lid. In the preference test, each cricket was placed into the test chamber and allowed to walk freely for 4 minutes to search for the two smell sources. Two minutes after the start of the test, a rotary board having the smell sources was rotated to reverse the positions of the vanilla and the peppermint smells. During the test, the time the cricket spent placing its mouth to the gauze of the smell source was measured as a visiting time to the smell source, and the ratio of the visiting times of the two types of smells (PI value: preference index) was calculated according to the following formula to assess the relative preference to the mint smell. PI value=Tp/(Tp+Tv)×100 • Tp: Searching time for smell associated with the reward (peppermint) • Tv: Searching time for smell not associated with the reward (vanilla)
If the preferences for the two smells are equivalent, PI will be 50. Since crickets inherently prefer vanilla smell over peppermint smell, an average PI value prior to the learning/training is usually 25-35, The preference test was conducted before and after the learning/training to examine whether preference for the smell changes due to the learning/training.
As drugs, melatonin, N(1)-acetyl-N(2)-formyl-5-methoxykynuramine (AFMK), N(1)-acetyl-5-methoxykynuramine (AMK), 6-Hydroxymelatonin (6-HM), L-kynurenine, kynuramine, 8-Bromoguanoine 3′,5′-cyclic monophosphate sodium salt (8 br-cGMP) and cycloheximide (CHX) were used. Melatonin, 6-HM, kynurenine, kynuramine and 8br-cGMP were purchased from SIGMA Aldrich, AFMK was purchased from Cayman Chemical, AMK was purchased from Toronto Research Chemicals and CHX was purchased from Wako Pure Chemical Industries. The drugs other than 8br-cGMP and CHX were first dissolved in ethanol and then diluted with physiological saline for crickets to the respective concentrations. In the administration experiment, 3 μl was administered using a 10-μl syringe to the brain via an aperture opened through a simple eye of the head.
PI values were tested before the training and a day after the training in the same group by a Wilcoxon's-test.

For COc1ccc2[nH]cc(CCNC(C)=O)c2c1 [melatonin, reference compound], the “long-term memory formation a day after the training by oral administration” value [1] was “long-term memory was formed”, the “improvement in an age-related memory disorder” value ([2]; 20 minutes after training for four times) was “improvement in an age-related memory disorder was observed” and the “long-term memory formation a day after the training (improvement of age-related memory disorder)” value ([2]; 20 minutes before training for four times) was “a long-term memory was formed”. For the same compound, the “concentration at which the effect of inducing long-term memories was found” value [3] was 5.0 mg/kg bw, the “long-term memory formation a day after the training” value ([4]; 0.2 μM, 3 μl to the brain, 20 minutes after single-time training) was “not” and the “long-term memory formation a day after the training” value ([4]; 1 μM, 3 μl to the brain, 20 minutes after single-time training) was “not”. For the same compound, the “PI value for mint a day after the training versus PI value before the training” value ([4]; 5 μM to the brain 20 minutes before single-time training) was “significantly higher”, the “long-term memory formation a day after the training” value ([4]; 5 μM, 3 μl to the brain, 20 minutes after single-time training) was “long-term memories were formed” and the “long-term memory formation a day after the training” value ([4]; 5 μM, 3 μl, administered between 20 minutes before and 20 minutes after single-time training) was “long-term memory was formed”. The “long-term memory formation a day after the training” value ([4]; 25 μM, 3 μl to the brain, 20 minutes after single-time training) was “formed”, the “administration concentration sufficient to form long-term memory” value ([4]; 3 μl to the brain 20 minutes after single-time training) was 5 µM and the “amount in 1 g of the food per kg of body weight” value ([4]; based on the result from ingesting 5 μM for 10 μl) was no less than 11.6 µg. The “PI value for mint a day after the training versus PI value before the training” value ([4]; melatonin 5 μM simultaneously with cycloheximide (10 mM), to the brain 20 minutes before single-time training) was “no significant difference”.
